Reference: PubChem BioAssay (NCI)
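96-well plates; 48 h exposure; 5 concentrations. Endpoints by linear interpolation between flanking doses. Not reached: highest tested concentration assigned. At the GI50, growth is halved. TGI is the concentration that stops growth completely.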

Key:
Experiment in all cases: inhibition of tumour cell growth, NCI panel, 48 h
[1] = test system: NCI-H460 lung
[2] = test system: MOLT-4 leukemia
[3] = test system: SNB-19 CNS
[4] = test system: SF-295 CNS
[5] = test system: A549 NSCLC
[6] = test system: HL-60(TB) leukemia
[7] = test system: A498 renal
[8] = test system: MDA-MB-231 breast
[9] = test system: T-47D breast
[10] = test system: MCF7 breast

| Structure (SMILES) | TGI [1] | TGI [2] | TGI [3] | TGI [4] | TGI [5] | TGI [6] | TGI [7] | GI50 [1] | GI50 [8] | TGI [8] | GI50 [2] | GI50 [3] | GI50 [4] | GI50 [9] | TGI [9] | GI50 [5] | GI50 [6] | GI50 [7] | TGI [10] |
| --- | --- | --- | --- | --- | --- | --- | --- | --- | --- | --- | --- | --- | --- | --- | --- | --- | --- | --- | --- |
| COCCCNC(=O)CC(=O)NCCCOC | > 100 µM | > 100 µM | > 100 µM | > 100 µM | > 100 µM | > 100 µM | > 100 µM | – | – | – | – | – | – | – | – | – | – | – | – |
| O=C(Cc1nc2ccccc2s1)Nc1cccc(C(F)(F)F)c1 | 41.4 µM | 25.8 µM | 32.3 µM | 30.7 µM | 45.4 µM | 17.8 µM | 22.3 µM | – | – | – | – | – | – | – | – | – | – | – | – |
| COC(=O)CCC(=O)CC(=O)C(=O)Nc1c(Cl)cc([N+](=O)[O-])cc1Cl | > 100 µM | > 100 µM | > 100 µM | > 100 µM | > 100 µM | > 100 µM | > 100 µM | – | – | – | – | – | – | – | – | – | – | – | – |
| CN1CCN(c2ccc3nc(-c4ccc5nc(-c6ccc(OCCC(C)(C)C)cc6)[nH]c5c4)[nH]c3c2)CC1 | 3.97 µM | 10.7 µM | 4.09 µM | 6.22 µM | 17.7 µM | 29.1 µM | 35.1 µM | 2.13 µM | 2.85 µM | 5.83 µM | 3.12 µM | 2.15 µM | 2.34 µM | 14.2 µM | 41.1 µM | 4.69 µM | 4.71 µM | 17.5 µM | – |
| CS(=O)(=O)N(N(CCCl)S(=O)(=O)c1ccccc1)S(C)(=O)=O | > 100 µM | > 100 µM | > 100 µM | > 100 µM | > 100 µM | > 100 µM | – | – | – | – | – | – | – | – | – | – | – | – | – |
| CN(C)CCNC(=O)c1cccc2c1nc(-c1ccccc1)c1ccccc12 | 13.3 µM | 2.16 µM | 23.8 µM | 18.7 µM | 15 µM | 8 µM | 16.9 µM | – | – | – | – | – | – | – | – | – | – | – | – |
| O=CC[C@H]1CCc2ccccc2C12CCC(=O)CC2 | > 100 µM | > 100 µM | > 100 µM | > 100 µM | > 100 µM | 65.8 µM | > 100 µM | – | – | – | – | – | – | – | – | – | – | – | – |
| COc1cc2c3c(c1OC)-c1c(ccc4c1OCO4)CC3(C#N)N(C(=O)c1ccccc1)CC2 (stereo not given) | > 100 µM | > 100 µM | > 100 µM | > 100 µM | > 100 µM | > 100 µM | > 100 µM | – | – | – | – | – | – | – | – | – | – | – | – |
| CC1(C)Cc2cc(C(=O)O)c3c(c2C1=O)COCC3 | > 100 µM | > 100 µM | > 100 µM | > 100 µM | > 100 µM | > 100 µM | > 100 µM | – | – | – | – | – | – | – | – | – | – | – | – |
| O=C(Nc1nc2ncn(CCNCc3ccccc3)c2c(=O)[nH]1)c1ccccc1 | > 100 µM | – | – | > 100 µM | > 100 µM | > 100 µM | > 100 µM | – | – | – | – | – | – | – | – | – | – | – | – |
| CCOC(=O)C1=C(C)N(c2ccc(C)cc2)C2=C(C(=O)N(c3ccccc3)C2c2ccccc2)C1c1ccccc1 (stereo not given) | > 25 µM | > 25 µM | > 25 µM | > 25 µM | > 25 µM | > 25 µM | > 25 µM | – | – | – | – | – | – | – | – | – | – | – | – |
| O=C(O)/C(=C/C=C/c1ccccc1)c1csc(-c2nc(/C(=C\C=C\c3ccccc3)C(=O)O)cs2)n1 | > 100 µM | 16.4 µM | 58.1 µM | 87.6 µM | > 100 µM | 39.3 µM | > 100 µM | – | – | – | – | – | – | – | – | – | – | – | – |
| COc1ccc(/C=c2\sc3n(c2=O)C(N)=C(C#N)C(c2ccc(OC)cc2)C=3c2nc3ccccc3[nH]2)cc1 (stereo not given) | 40.9 µM | > 100 µM | > 100 µM | – | > 100 µM | > 100 µM | > 100 µM | – | – | – | – | – | – | – | – | – | – | – | – |
| CC(C)(C)c1cc2c3c(c1)C(C(F)(F)F)(C(F)(F)F)O[Te]3(C)OC2(C(F)(F)F)C(F)(F)F | > 100 µM | > 100 µM | > 100 µM | > 100 µM | > 100 µM | > 100 µM | – | – | – | – | – | – | – | – | – | – | – | – | – |
| CC(=O)c1ccc(NC(=O)C(=O)Nn2c(=S)[nH]c3ccccc3c2=O)cc1 | > 100 µM | > 100 µM | > 100 µM | > 100 µM | > 100 µM | > 100 µM | > 100 µM | – | – | – | – | – | – | – | – | – | – | – | – |
| O=[N+]([O-])c1cccc(C2ON2C2CCCCC2)c1 (stereo not given) | 32.5 µM | 64.7 µM | 84.5 µM | > 100 µM | 84.5 µM | 47.9 µM | 90.1 µM | – | – | – | – | – | – | – | – | – | – | – | – |
| CCOC(=O)C(=Cc1ccc(Oc2ccccc2)cc1)C(=O)OCC | 40.7 µM | 4.93 µM | 17.5 µM | 10.6 µM | 22.6 µM | 5.54 µM | 28.8 µM | – | – | – | – | – | – | – | 24.6 µM | – | – | – | 18.5 µM |
| O=C(CCC(=O)C(C(=O)c1ccccc1)c1ccccc1)Nc1cccc(C(F)(F)F)c1 (stereo not given) | > 100 µM | > 100 µM | > 100 µM | > 100 µM | > 100 µM | > 100 µM | > 100 µM | – | – | – | – | – | – | – | – | – | – | – | – |
| O=[N+]([O-])c1cccc(-c2oc(C=Nc3ccccc3)c([N+](=O)[O-])c2-c2cccc([N+](=O)[O-])c2)c1 | > 100 µM | > 100 µM | – | > 100 µM | > 100 µM | > 100 µM | > 100 µM | – | – | – | – | – | – | – | – | – | – | – | – |
